Here are results for four substances from patent publication US20210315991A1, “COMBINATION INCLUDING A CPG-C TYPE OLIGONUCLEOTIDE AND A PD-1 ANTAGONIST FOR TREATING BREAST CANCER” (Surefire Medical, Inc. d/b/a TriSalus Life Sciences, priority 2018, published 2021).

In this data set the test system is human peripheral blood mononuclear cells (PBMCs). The data set can be described thus: IFN-α secretion by human PBMC (ELISA). The data set is classed as cell-based. The settings on record: for EC50: human PBMCs from healthy donors, IFN-α in supernatant by ELISA; for EC50 / IFN-α Max: 24 hours incubation; for IFN-α Max / maximum IFN-α levels induced, as compared to C69-10 and C69-11: human PBMCs; for IFN-α Max: ELISA, limit of maximal/minimal detection 13160/102 pg/ml; for maximum IFN-α levels induced, as compared to C69-10 and C69-11: 24 hours, result in words. How it is done:
The activity of a candidate TLR9 agonist may be assessed in vitro by measuring interferon-alpha secretion by human peripheral blood mononuclear cells (PBMC) with an enzyme linked immunosorbent assay (ELISA). In particular, human PBMC are contacted with a series of graded doses of the candidate TLR9 agonist (and controls) for a period of about 24 hours. The EC50 value (in nM) and a max production level (in pg/mL) are then determined from a dose-response curve.
Activity of oligonucleotides (PN) was assessed in vitro by measurement of cytokine secretion by human peripheral blood mononuclear cells (PBMCs).
PBMCs were isolated from blood of healthy human donors using Ficoll-Paque. For IFN-α induction, duplicate cultures of PBMCs were incubated for 24 hours with increasing concentrations of oligonucleotides. IFN-α levels in cell culture supernatants were measured by ELISA (PBL Biomedical Laboratories, Piscataway, N.J.). The limit of maximal/minimal detection was 13160/102 pg/ml.
In general terms: In an ELISA, binding on a coated surface is turned into a signal by an enzyme label.

The term EC50 denotes the midpoint of the concentration-response curve. Read a high EC50 as weaker potency. For the substance “C69-11: 5′-TTTTCG AACGTTCGAACGTTCGAAATT-3′ (SEQ ID NO: 24), phosphorothioate backbone (DNA TTTTCGAACGTTCGAACGTTCGAAATT; DNA, all phosphorothioate, methylation of C not given here)”, it took 65 nM to reach a half-maximal effect (EC50) and the “IFN-α Max” value is 1239 pg/mL.

As for “C69-10: 5′-TTCG AACGTTCGAACGTTCGAAT-3′ (SEQ ID NO: 23), phosphorothioate backbone (DNA TTCGAACGTTCGAACGTTCGAAT; DNA, all phosphorothioate, methylation of C not given here)”, the EC50 amounted to 58 nM and the “IFN-α Max” value worked out at 3820 pg/mL.

As for “C69-02: 5′-TCG AACGTTCGAACGTTCGAA CGTT-3′ (SEQ ID NO: 5), phosphorothioate backbone (DNA TCGAACGTTCGAACGTTCGAACGTT; DNA, all phosphorothioate, methylation of C not given here)”, the EC50 was determined as 49 nM; the “IFN-α Max” value was 6008 pg/mL; the “maximum IFN-α levels induced, as compared to C69-10 and C69-11” value is listed as “Higher maximum IFN-α levels”.

Take “C69-01: 5′-TCG AACGTTCGAACGTTCGAA CGTTCGAAT-3′ (SEQ ID NO: 4), CpG-C 2′-deoxyribopolynucleotide, phosphorothioate backbone (DNA TCGAACGTTCGAACGTTCGAACGTTCGAAT; DNA, all phosphorothioate, methylation of C not given here)”: the response was half-maximal at 61 nM (EC50); the “IFN-α Max” value turned out to be 6030 pg/mL; the “maximum IFN-α levels induced, as compared to C69-10 and C69-11” value is listed as “Higher maximum IFN-α levels”.
